Data reported in patent publication US8912227B1, “Bicyclic pyrrole derivatives useful as agonists of GPR120” (Janssen Pharmaceutica NV, priority 2014, dated 2014).

Columns and labels:
[1] = target: T1, long form of human GPR120 (Homo sapiens, UniProt Q5NUL3); assay: Human GPR120 DiscoveRx PathHunter β-Arrestin assay, Procedure β-arrestin A; format: cell-based; settings: PathHunter CHO-K1 GPR120 β-Arrestin cell line, 3000 cells per well
T1 construct: host or cells: PathHunter CHO-K1 GPR120 β-Arrestin Cell Line
Method in brief: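 PathHunter CHO-K1 β-arrestin cells (NM_181745 construct) were plated at 3000/well overnight, then held 60 min in HBSS/20 mM HEPES/0.1% BSA, pH 7.4. Compounds (dilution series 25–0.012 µM before addition) were added for 90 min at 37 °C, followed by 60 min RT luminescence detection. EC50 was fitted from % of positive control with Hill slope fixed at 1.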

[2] = target: T2, short form of the GPR120 receptor (Homo sapiens, UniProt Q5NUL3); assay: Human GPR120 DiscoveRx PathHunter β-Arrestin assay, Procedure β-arrestin B; format: cell-based; settings: PathHunter CHO-K1 GPR120S β-Arrestin cell line, 5000 cells/well
T2 construct: host or cells: PathHunter CHO-K1 GPR120S β-Arrestin Cell Line
Description: The binding of an agonist (medium/long chain fatty acids or small molecule agonists) to the G-protein-coupled receptor GPR120 activates phospholipase C, leading to release of intracellular Ca^+2 through the generation of inositol 1,4,5-trisphosphate (InsP3 or IP3). GPR120 activation can also trigger intracellular signaling via recruitment of β-Arrestin. In the present method, agonist-induced activation of the human GPR120 receptor is monitored through the use of PathHunter CHO-K1 GPR120 β-Arrestin Cell Line engineered by DiscoveRx, as detailed below. The cell lines are designed to co-express both the ProLink/Enzyme Donor (PK)-tagged GPCR and the Enzyme […] (EA)-tagged Beta-Arrestin fusion proteins. Upon GPR120 receptor stimulation/activation, the EA-tagged β-Arrestin portion is translocated to the tagged receptor, where the two enzyme fragments are brought within close proximity. Under these conditions, these fragments can interact and form an active Beta-gal enzyme complex through Enzyme Fragment Complementation (EFC). This active Beta-gal complex can enzymatically hydrolyse the substrate to produce a detectable light signal; therefore, activation as a function of agonist concentration can be expressed as an EC50 value to determine relative compound activities. This in vitro assay therefore serves to assess compound agonist activity of the GPR120.
In Procedure β-arrestin B the cells used were PathHunter CHO-K1 GPR120S β-Arrestin Cell Line, expressing the short form of the GPR120 receptor (Accession #NM_181745), with 5000 cells/well.
The selected CHO-K1 GPR120 β-Arrestin cells were cultured in Ham's F12 media supplemented with 10% fetal bovine serum (FBS), 1% Glutamine, 1×p/s, 800 μg/ml G418 and 300 μg/ml Hygromycin B (for selection). Cell stocks were maintained and grown in a sub-confluent state using standard cell culture procedures. The day before the experiment, the cells were harvested with non-enzymatic cell dissociation buffer and re-suspended in complete growth media at the desired concentration. A Corning 384-plate was then seeded with the proper number of cells in a volume of 25 μL, per well. The seeded plates were incubated overnight at 37° C.
On the day of the experiment, the Assay Buffer containing (a) HBSS with Ca^++ and Mg^++, (b) 20 mM HEPES, and (c) 0.1% BSA stabilizer (pH 7.4) was prepared. The growth medium was gently removed from the cell plates and 20 μL of Assay Buffer added to each well. The plate was then incubated at 37° C. for 60 mins. Test compounds were serially diluted in Assay Buffer to desired concentrations (more particularly, to one or more of the following μM concentrations: 25 μM, 12.5 μM, 6.25 μM, 3.125 μM, 1.562 μM, 0.781 μM, 0.391 μM, 0.195 μM, 0.098 μM, 0.049 μM, 0.024 μM, 0.012 μM). Five μl of compound dilution was then added to each well and the plate incubated at 37° C. for 90 mins. The detection reagents were prepared according to the manufacture's instruction. Twelve μL of the detection reagents were added to each well and the plate incubated at room temperature for 60 mins.
The plates were read on an EnVision instrument, using Protocol name: Luminescence, Plate type: 384 Costar, Measurement height: 3 mm, Measurement time: 1 s, Aperture: 384 Plate aperture. The % activity relative to the positive control was calculated using the following equation:
The % Activity values were plotted versus the concentration of test compound and fitted to a sigmoidal dose-response curve with a Hill slope=1 (fixed value) using nonlinear regression with GraphPad Prism 5.0 to calculate the EC50 values. The Fitting Equation was: Y=Bottom+(Top−Bottom)/(1+10^((LogEC50−X)*HillSlope)), where X is the log of the concentration and Y is the response.

T2 sequence (Q5NUL3 whole entry): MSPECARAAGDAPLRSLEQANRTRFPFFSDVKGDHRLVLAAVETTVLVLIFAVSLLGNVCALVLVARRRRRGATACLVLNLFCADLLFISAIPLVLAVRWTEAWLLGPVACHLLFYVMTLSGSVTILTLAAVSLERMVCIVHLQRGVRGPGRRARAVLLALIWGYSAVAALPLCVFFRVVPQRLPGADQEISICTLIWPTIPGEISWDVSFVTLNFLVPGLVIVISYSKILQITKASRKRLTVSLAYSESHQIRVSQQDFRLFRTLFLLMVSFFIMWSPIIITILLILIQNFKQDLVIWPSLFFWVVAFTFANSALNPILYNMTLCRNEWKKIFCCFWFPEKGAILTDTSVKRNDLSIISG
T2 sequence (P32121 whole entry partner): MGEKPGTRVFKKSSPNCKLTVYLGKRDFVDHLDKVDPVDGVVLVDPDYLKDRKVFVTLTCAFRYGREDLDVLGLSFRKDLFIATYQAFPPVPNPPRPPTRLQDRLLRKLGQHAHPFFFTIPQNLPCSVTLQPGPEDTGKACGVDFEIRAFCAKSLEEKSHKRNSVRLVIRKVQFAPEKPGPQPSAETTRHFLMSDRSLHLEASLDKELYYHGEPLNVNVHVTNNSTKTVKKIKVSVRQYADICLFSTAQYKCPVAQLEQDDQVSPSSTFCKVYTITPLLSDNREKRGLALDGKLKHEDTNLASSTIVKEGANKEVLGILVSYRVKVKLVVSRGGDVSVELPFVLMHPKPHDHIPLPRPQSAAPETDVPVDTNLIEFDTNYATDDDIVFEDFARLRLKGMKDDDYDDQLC
T1 sequence (Q5NUL3 1-377 isoform Q5NUL3-1): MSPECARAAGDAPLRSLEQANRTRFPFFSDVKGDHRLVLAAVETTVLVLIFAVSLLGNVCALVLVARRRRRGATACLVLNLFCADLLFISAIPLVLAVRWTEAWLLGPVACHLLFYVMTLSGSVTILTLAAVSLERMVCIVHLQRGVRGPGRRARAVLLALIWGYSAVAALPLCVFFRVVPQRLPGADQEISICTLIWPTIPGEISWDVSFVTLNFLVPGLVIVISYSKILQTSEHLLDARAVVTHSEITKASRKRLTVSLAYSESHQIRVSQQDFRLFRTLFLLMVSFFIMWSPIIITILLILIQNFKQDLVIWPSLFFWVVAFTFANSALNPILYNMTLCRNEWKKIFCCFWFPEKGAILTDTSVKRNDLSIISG
T1 sequence (P32121 whole entry partner): as the sequence (P32121 whole entry partner) above

EC50 [1] [nM]	EC50 [2] [nM]	Structure (SMILES)
171	179	CCc1ccc(-n2ccc(C(F)(F)F)c2COc2ccc(CCC(=O)O)c(F)c2F)cc1 [Compound 34, 3-(4-[[1-(4-ethylphenyl)-3-(trifluoromethyl)-1H-pyrrol-2-yl]methoxy]-2,3-difluorophenyl)propanoic acid]
53	63	OCCCc1ccc(OCc2c(C(F)(F)F)ccn2-c2ccc(Cl)cc2)c(F)c1F [Compound 29, 3-(4-{[1-(4-Chlorophenyl)-3-(trifluoromethyl)-1H-pyrrol-2-yl]methoxy}-2,3-difluorophenyl)propan-1-ol]
264	219	Cc1ccc(-n2ccc(C(F)(F)F)c2COc2c(F)cc(CCC(=O)O)cc2F)cc1 [Compound 39, 3-(3,5-difluoro-4-[[1-(4-methylphenyl)-3-(trifluoromethyl)-1H-pyrrol-2-yl]methoxy]phenyl)propanoic acid]
1040	–	Cc1c(CCC(=O)O)ccc(OCc2cccn2-c2ccc(Cl)cc2)c1C [Compound 1, 3-(4-{[1-(4-Chlorophenyl)-1H-pyrrol-2-yl]methoxy}-2,3-dimethylphenyl)propanoic acid]
